Source: patent US11007155B2, “Method for producing a sea urchin extract enriched with 1,4-polyhydroxylated naphthoquinones with antimicrobial and antioxidant activity” (Universidad Técnica Federico Santa María, priority 2016, dated 2021)
≈ marks a conversion by molar mass, not a printed value. Like-named read-outs stand apart in the source and are kept apart here. Values belong to the compound of their own block, whether it stands above or below them.

Tests used:
E. coli = experiment: Antibacterial activity (MIC) against clinical isolates; format: cell-based; settings: Escherichia coli
From the text: (§1) In order to test the antibiotic activity of these compounds, the inventors studied the antibacterial activity, measured as minimum inhibitory concentration (MIC), of the black sea urchin (Tetrapygus niger) extract enriched in equinochrome A (85% purity) and the purified EqA.

Klebsiella oxytica = experiment: as above; format: cell-based; settings: resistant to ampicillin
From the text: as §1

Klebsiella pneumoniae = experiment: as above; format: cell-based; settings: resistant to ampicillin, aztreonam, cephalothin, cefepime, cefotaxime, ceftazidime
From the text: as §1

Pseudomona aeruginosa = experiment: as above; format: cell-based
From the text: as §1

S. aureus = experiment: as above; format: cell-based; settings: Staphylococcus aureus, resistant to penicillin
From the text: as §1

[1] = DPPH radical capture assay (antioxidant activity)
From the text: The antioxidant activity of EqA is dependent on the concentration of the pigment, the pH and the concentration of calcium. In the absence of calcium, the antioxidant activity is observed only at alkaline pH, but in the presence of calcium, the antioxidant activity is observed at alkaline pH and neutral pH, by the formation of stable semiquinone-calcium complexes (Levedeb et al., Archives of Biochemistry and Biophysics (2003) 413: 191-198). The invention is illustrated in the following examples:
The antioxidant activity of the purified extract and equinochrome A was evaluated by the DPPH radical capture assay (2, 2-diphenyl-1-picryihydracil) (Shankarlal et al., (2011) Am-Euras, J. Sci. Res. 6:178-181).

[2] = Storage stability of the product; format: physicochemical; settings: stored at −20° C
From the text: The process of the invention begins with spawning, which is induced by injection of KCl (0.5 M) into the perivisceral coelom. The induced urchin females are deposited on a smaller diameter vessel, which contains filtered and sterile seawater, where the eggs are received. The collected eggs are filtered, preferably using a fine sieve of pore size 1/32 inches (0.079375 centimeters) to remove impurities. Afterwards it is washed with filtered and sterile seawater. The excess water is subsequently removed by decanting the eggs. Then the eggs are dried at 60-80° C. for 24-72 hours, and are ground to a fine powder, which is cleaned by passing through a sieve of pore size 1/120 inches (0.021 centimeters). The product is then extracted by mixing the powder with methanol or ethanol at a proportion of 1:30 v/v under constant agitation. It is further filtered to remove the egg debris and evaporated under vacuum at 55° C. to 1/10 of the initial volume. The resulting extract is purified by chromatography with a C18 RP column, elution with 30-40% methanol to extract mainly spinochrome E, and finally an elution with 100% ethanol for the extraction of EqA.

MIC (E. coli; pH 5, pH 5, hemocultivo isolate, antibiotic resistance —): 32 µg/mL (≈ 120 µM)
MIC (E. coli; pH 5, pH 5, hemocultivo isolate, resistant to ampicillin, chloramphenicol, cotrimoxazole): 32 µg/mL (≈ 120 µM)
MIC (E. coli; pH 5, pH 5, urine isolate, resistant to ampicillin, aztreonam, cefepime, cefotaxime, ceftazidime, ciprofloxacin): 32 µg/mL (≈ 120 µM)
MIC (E. coli; pH 7, pH 7, hemocultivo isolate, antibiotic resistance —): > 64 µg/mL
MIC (E. coli; pH 7, pH 7, hemocultivo isolate, resistant to ampicillin, chloramphenicol, cotrimoxazole): > 64 µg/mL
MIC (E. coli; pH 7, pH 7, urine isolate, resistant to ampicillin, aztreonam, cefepime, cefotaxime, ceftazidime, ciprofloxacin): 64 µg/mL (≈ 240 µM)
MIC (Klebsiella oxytica; pH 5, hemocultivo isolate): 64 µg/mL (≈ 240 µM)
MIC (Klebsiella oxytica; pH 7, hemocultivo isolate): > 64 µg/mL
MIC (Klebsiella pneumoniae; Klebsiella pneumoniae, pH 5, urine isolate, ertapenem, nitrofurantoin, read-out: MIC): 64 µg/mL (≈ 240 µM)
MIC (Klebsiella pneumoniae; Klebsiella pneumoniae, pH 7, urine isolate, ertapenem, nitrofurantoin, read-out: MIC): > 64 µg/mL
MIC (Klebsiella pneumoniae; pH 5, hemocultivo isolate, ciprofloxacin, chloramphenicol, colistin, cotrimoxazole, gentamicin): 64 µg/mL (≈ 240 µM)
MIC (Klebsiella pneumoniae; pH 5, urine isolate, nitrofurantoin): 64 µg/mL (≈ 240 µM)
MIC (Klebsiella pneumoniae; pH 7, hemocultivo isolate, ciprofloxacin, chloramphenicol, colistin, cotrimoxazole, gentamicin): >64 µg/mL
MIC (Klebsiella pneumoniae; pH 7, urine isolate, nitrofurantoin): >64 µg/mL
MIC (Pseudomona aeruginosa; pH 5, pH 5, aspirado traqueal isolate, resistant to ampicillin, aztreonam, cefepime, ceftazidime, imipenem, meropenem): 32 µg/mL (≈ 120 µM)
MIC (Pseudomona aeruginosa; pH 5, pH 5, aspirado traqueal isolate, resistant to ampicillin, aztreonam, ceftazidime, imipenem, meropenem): 64 µg/mL (≈ 240 µM)
MIC (Pseudomona aeruginosa; pH 5, pH 5, aspirado traqueal isolate, resistant to ampicillin, ciprofloxacin, imipenem, meropenem): 32 µg/mL (≈ 120 µM)
MIC (Pseudomona aeruginosa; pH 5, pH 5, cateter isolate, resistant to ampicillin, aztreonam, cefepime, ceftazidime, imipenem, meropenem): 32 µg/mL (≈ 120 µM)
MIC (Pseudomona aeruginosa; pH 5, pH 5, hemocultivo isolate, resistant to cefepime, ceftazidime, ciprofloxacin, gentamicin): 32 µg/mL (≈ 120 µM)
MIC (Pseudomona aeruginosa; pH 7, pH 7, aspirado traqueal isolate, resistant to ampicillin, aztreonam, cefepime, ceftazidime, imipenem, meropenem): > 64 µg/mL
MIC (Pseudomona aeruginosa; pH 7, pH 7, aspirado traqueal isolate, resistant to ampicillin, aztreonam, ceftazidime, imipenem, meropenem): > 64 µg/mL
MIC (Pseudomona aeruginosa; pH 7, pH 7, aspirado traqueal isolate, resistant to ampicillin, ciprofloxacin, imipenem, meropenem): > 64 µg/mL
MIC (Pseudomona aeruginosa; pH 7, pH 7, cateter isolate, resistant to ampicillin, aztreonam, cefepime, ceftazidime, imipenem, meropenem): > 64 µg/mL
MIC (Pseudomona aeruginosa; pH 7, pH 7, hemocultivo isolate, resistant to cefepime, ceftazidime, ciprofloxacin, gentamicin): > 64 µg/mL
MIC (S. aureus; pH 5, pH 5, hemocultivo isolate (1st, r13)): 8 µg/mL (≈ 30.1 µM)
MIC (S. aureus; pH 5, pH 5, hemocultivo isolate (2nd, r14)): 8 µg/mL (≈ 30.1 µM)
MIC (S. aureus; pH 5, pH 5, hemocultivo isolate (3rd, r15)): 8 µg/mL (≈ 30.1 µM)
MIC (S. aureus; pH 5, pH 5, hemocultivo isolate, oxacillin, erythromycin, clindamycin, ciprofloxacin): 32 µg/mL (≈ 120 µM)
MIC (S. aureus; pH 5, pH 5, isolate from tracheal aspirate): 8 µg/mL (≈ 30.1 µM)
MIC (S. aureus; pH 7, pH 7, hemocultivo isolate (1st, r13)): 32 µg/mL (≈ 120 µM)
MIC (S. aureus; pH 7, pH 7, hemocultivo isolate (2nd, r14)): 32 µg/mL (≈ 120 µM)
MIC (S. aureus; pH 7, pH 7, hemocultivo isolate (3rd, r15)): 32 µg/mL (≈ 120 µM)
MIC (S. aureus; pH 7, pH 7, hemocultivo isolate, oxacillin, erythromycin, clindamycin, ciprofloxacin): 32 µg/mL (≈ 120 µM)
MIC (S. aureus; pH 7, pH 7, isolate from tracheal aspirate): 32 µg/mL (≈ 120 µM)
EC50 [1]: 13 µM
storage stability [2]: high stability for months
Compound: CCc1c(O)c(O)c2c(c1O)C(=O)C(O)=C(O)C2=O [EqA, 6-ethyl-2,3,5,7,8-pentahydroxy-1,4-naphthoquinone]
antioxidant activity compared with reference antioxidants [1]: greater than the antioxidant activities of α-tocopherol and ascorbic acid

EC50 [1]: 45 µM
Compound: O=C1O[C@H]([C@@H](O)CO)C(O)=C1O [ascorbic acid, reference compound]

EC50 [1]: 100 µM
Compound: Cc1c(C)c2c(c(C)c1O)CC[C@@](C)(CCC[C@H](C)CCC[C@H](C)CCCC(C)C)O2 [α-tocoferol, reference compound]
